Data as given in paper PMC6728359, “Crystal structure and chemical inhibition of essential schistosome host-interactive virulence factor carbonic anhydrase SmCA” (Communications Biology, 2019).
Read-outs that look alike come from different tables or passages of the source.

Tests used:
[1] = target: rSmCA (recombinant SmCA, α-carbonic anhydrase) (Schistosoma mansoni, UniProt A0A3Q0KSG2); assay: biochemical; type: biochemical
[2] = target: recombinant human isoform hCA I; settings: cited from earlier work
[3] = target: recombinant human isoform hCA II; settings: cited from earlier work

Sequence of rSmCA (recombinant SmCA, α-carbonic anhydrase) (A0A3Q0KSG2 21-298 limits assumed): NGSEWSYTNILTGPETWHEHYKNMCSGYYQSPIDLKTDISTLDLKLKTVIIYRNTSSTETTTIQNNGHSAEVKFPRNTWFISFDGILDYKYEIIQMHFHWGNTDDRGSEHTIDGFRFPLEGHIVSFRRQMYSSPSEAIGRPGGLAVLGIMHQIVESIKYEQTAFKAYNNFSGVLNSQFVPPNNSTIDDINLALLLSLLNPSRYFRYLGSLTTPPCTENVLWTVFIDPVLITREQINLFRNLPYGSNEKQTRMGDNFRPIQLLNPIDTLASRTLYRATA

Compound	Ki ([1]; read-out: Ki SmCA) [mM]	Ki [2] [mM]	other results
[N-]=[N+]=[N-] [N3^−, azide]	2.43	–	–
O=[Se](=O)(O)O [SeO4^2−]	6.33	–	–
O=C1NS(=O)(=O)c2ccccc21 [SAC, saccharin]	–	–	Ki ([2]; read-out: Ki hCAI): 0.0185 mM; Ki [1]: > 0.05 mM
[Br-].[K+] [Br−, bromide]	9.35	4	Ki [3]: 63 mM
S [HS^−, hydrosulfide]	5.96	0.0006	–
SO4^2−	6.86	–	–
O=C(O)O [HCO3−]	5.1	–	–
OB(O)c1ccccc1 [Ph-B(OH) 2, phenylboronic acid]	–	58.6	Ki [1]: 0.02 mM; higher affinity for SmCA versus human isoforms hCA I or hCA II [1]: > 1000 fold
F [F^−, fluoride]	6.44	–	–
NS(=O)(=O)c1ccc(S(=O)(=O)Nc2cccc3c(Cl)c[nH]c23)cc1 [IND, indisulam]	–	–	Ki [1]: 3.65e-05 mM
S2O8^2−	7.85	–	–
NS(=O)(=O)c1cc2c(cc1Cl)NCNS2(=O)=O [HCT, hydrochlorothiazide]	–	–	Ki [1]: 0.000399 mM
CCN[C@H]1CN(CCCOC)S(=O)(=O)c2sc(S(N)(=O)=O)cc21 [BRZ, brinzolamide]	–	–	Ki [1]: 4.66e-05 mM
CC1(C)O[C@@H]2[C@@H](CO[C@@]3(COS(N)(=O)=O)OC(C)(C)O[C@@H]23)O1 [TPM, topiramate]	–	–	Ki ([3]; read-out: Ki hCAII): 1e-05 mM; Ki [1]: 0.000568 mM
I [I^−, iodide]	5.11	0.3	–
CS3^2−	6.16	0.0087	–
O=S(=O)(O)F [FSO3^−]	6.02	–	–
NS(N)(=O)=O [H 2 NSO 2 NH 2, sulfamide]	0.007	–	greater potency over SmCA versus hCA I [1]: 44 fold; greater potency over SmCA versus hCA II [1]: 161 fold
N#CS [SCN−, thiocyanate]	3.15	–	–

Compound	Ki ([1]; read-out: Ki SmCA) [mM]	Ki [2] [mM]	other results
O=[N+]([O-])O [NO3−, nitrate]	7.87	7	–
O=[As](O)(O)c1ccccc1 [Ph-AsO 3 H 2, phenylarsonic acid]	–	31.7	Ki [3]: 49.2 mM
NS(=O)(=O)Cc1noc2ccccc12 [ZNS, zonisamide]	–	–	Ki [1]: 0.000937 mM
[O-][Cl+3]([O-])([O-])O [ClO4^−, perchlorate]	> 100	–	–
P2O7^4−	> 100	25.8	–
CCN(CC)C(=S)S [Et2NCS2^−]	0.59	0.0008	Ki [3]: 0.0031 mM
[O]=[Re](=[O])(=[O])[OH] [ReO4^−]	8.75	–	–
N#C[SeH] [SeCN^−]	2.16	0.085	–
NS(=O)(=O)c1ccc(N2CCCCS2(=O)=O)cc1 [SLT, sulthiame]	–	–	Ki [1]: 0.00356 mM
N#CO [CNO^−, cyanate]	4.18	–	–
CF3SO3^−	5.62	–	–
NS(=O)(=O)c1nnc(NS(=O)(=O)c2ccccc2)s1 [BZA, benzolamide]	–	–	Ki [1]: 3.41e-05 mM
O=S(O)O [HSO3^−]	> 100	18	–
[O]=[Ru](=[O])(=[O])=[O] [RuO4^−]	2.07	–	–
OsO5^2−	7.55	–	–
Cc1onc(-c2ccccc2)c1-c1ccc(S(N)(=O)=O)cc1 [VLX, valdecoxib]	–	–	Ki [1]: 0.000431 mM
[O]=[Sn]([OH])[OH] [SnO3^2−]	4.11	–	–
O=[Te](=O)(O)O [TeO4^2−]	> 100	0.66	–
CC(=O)/N=c1/sc(S(N)(=O)=O)nn1C [MZA, methazolamide]	–	–	Ki [1]: 3.89e-05 mM
